Assay results as given in ChEMBL document CHEMBL1130880, “Synthesis and in vitro cytotoxicity of C(20)(RS)-camptothecin analogues modified at both B (or A) and E ring” (Bioorg Med Chem Lett, 1998).

How the values were obtained:
Assay type in all cases: functional, cell-based
A 172 = test: Compound was evaluated for in vitro antiproliferative activity against A172 human CNS cancer cell line
Caov-3 cell line = test: Compound was evaluated for in vitro antiproliferative activity against CAOV-3 human ovarian cancer cell line
DLD-1 = test: Compound was evaluated for in vitro antiproliferative activity against DLD-1 human colon cancer cell line
[1] = test system: KATO III stomach cancer cell line; test: Compound was evaluated for in vitro antiproliferative activity against KATO-III human gastric cancer cell line
L1210 = test: Compound was evaluated for in vitro antiproliferative activity against L1210 mouse leukemia cell line

SMILES	IC50 (A 172) [nM]	IC50 (Caov-3 cell line) [nM]	IC50 (DLD-1) [nM]	IC50 [1] [nM]	IC50 (L1210) [nM]
CCOCOCCC1(O)C(=O)OCc2c1cc1n(c2=O)Cc2c-1nc1ccccc1c2CCNC(C)C (configuration not stated)	5460	24	2100	4210	14100
CC(C)NCCc1c2c(nc3ccccc13)-c1cc3c(c(=O)n1C2)COC(=O)C3(O)CCO (configuration not stated)	3560	483	619	4400	6730
CCC1(O)C(=O)OCc2c1cc1n(c2=O)Cc2c-1nc1ccccc1c2CCNC(C)C (configuration not stated)	167	4	276	623	460
COCOCCC1(O)C(=O)OCc2c1cc1n(c2=O)Cc2c-1nc1cc3c(cc1c2CCl)OCCO3 (configuration not stated)	29	3	108	1460	307
CCOCOCCC1(O)C(=O)OCc2c1cc1n(c2=O)Cc2c-1nc1cc3c(cc1c2CCl)OCCO3 (configuration not stated)	–	3760	3880	5920	–
O=C1OCc2c(cc3n(c2=O)Cc2c-3nc3cc4c(cc3c2CCl)OCCO4)C1(O)CCO (configuration not stated)	391	10	55	135	898
COCOCCC1(O)C(=O)OCc2c1cc1n(c2=O)Cc2cc3ccccc3nc2-1 (configuration not stated)	2620	560	1860	320	440
COCOCCC1(O)C(=O)OCc2c1cc1n(c2=O)Cc2c-1nc1ccccc1c2CCNC(C)C (configuration not stated)	12200	91	549	3270	–
CCC1(O)C(=O)OCc2c1cc1n(c2=O)Cc2cc3ccccc3nc2-1 (configuration not stated)	29	32	102	448	35
CCC1(O)C(=O)OCc2c1cc1n(c2=O)Cc2c-1nc1cc3c(cc1c2CCl)OCCO3 (configuration not stated)	54	87	2780	6110	14000
